Patent US6492416B1, “4,5-diaryl-3(2H)-furanone derivatives as cyclooxygenase-2 inhibitors” (Pacific Corporation, priority 1999, dated 2002)
Values after ≈ are worked out from the molar mass of the structure shown.

Columns and labels:
[1] = system: male Sprague-Dawley (SD) rats; test: Carrageenan-induced foot edema in rats (CFE); type: in vivo; conditions: oral dose 3 mg/kg body weight, rat, paw volume 3 hours after Carrageenan
Description: An appropriate amount of a compound of this invention suspended in 1% methylcellulose (MC) solution was administered to male Sprague-Dawley (SD) rats weighing 150˜200 g by oral gavage. The volume of the administered vehicle for a compound of this invention was controlled to be smaller than 10 ml/kg body weight of the animal. One hour later, 0.1 ml of 1% Carrageenan saline solution was directly injected into the right paw of the rats to induce edema in the paw. The paw volumes at 0 hour and at 3 hours after the injection of Carrageenan were measured by using a displacement plethysmometer (Ugo Basile, Italy). The paw volumes were used to calculate % inhibition of CFE by an amount of a compound of this invention according to the following equation.
% Inhibition of CFE=(1−Δtreated/Δcontrol)×100
wherein Δtreated=[paw volume at three hours after the Carrageenan injection−paw volume right after Carrageenan injection] for a drug-administered rat, and Δcontrol=[paw volume at three hours after the Carrageenan injection−paw volume right after Carrageenan injection] for a rat without drug administration.
In order to determine the inhibitory activity of a compound of this invention at a dose, usually 5 to 8 animals were used both for drug-treated group and for control group.

COX-1 = molecular target: T1, COX-1 (Mus musculus, UniProt P22437); test: Evaluation of COX-1 activity: PGE2 formation in mouse peritoneal macrophages without aspirin and LPS treatment; type: cell-based
T1 sequence (P22437 27-602): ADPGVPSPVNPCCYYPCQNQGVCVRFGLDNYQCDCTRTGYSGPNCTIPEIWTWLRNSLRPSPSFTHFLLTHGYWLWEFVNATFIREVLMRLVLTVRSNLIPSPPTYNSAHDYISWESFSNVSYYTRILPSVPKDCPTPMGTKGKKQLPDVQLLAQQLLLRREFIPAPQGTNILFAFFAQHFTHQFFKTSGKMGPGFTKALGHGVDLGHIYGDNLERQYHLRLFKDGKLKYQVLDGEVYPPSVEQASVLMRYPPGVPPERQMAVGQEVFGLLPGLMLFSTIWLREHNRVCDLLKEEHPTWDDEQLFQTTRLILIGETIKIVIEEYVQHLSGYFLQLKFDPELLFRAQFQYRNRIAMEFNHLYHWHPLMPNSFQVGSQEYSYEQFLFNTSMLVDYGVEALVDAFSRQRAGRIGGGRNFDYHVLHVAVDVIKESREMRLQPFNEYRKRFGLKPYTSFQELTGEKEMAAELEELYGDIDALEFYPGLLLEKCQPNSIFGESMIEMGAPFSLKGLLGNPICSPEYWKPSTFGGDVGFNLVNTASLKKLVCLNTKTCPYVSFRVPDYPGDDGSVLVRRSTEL
How it was run: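 Peritoneal macrophages from C57BL/6 mice, without aspirin or LPS treatment, were plated at 1×10^6 cells/ml and fixed 2 h at 37 °C. Cells were preincubated 10 min, then given 10 μM arachidonic acid plus compound for 10 min; PGE2 was measured by RIA or EIA. IC50 came from 4–5 concentrations.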

COX-2 = molecular target: T2, COX-2 (Mus musculus, UniProt Q05769); test: Evaluation of COX-2 activity: PGE2 formation in aspirin-treated, LPS-stimulated mouse peritoneal macrophages; type: cell-based
T2 sequence (Q05769 18-604): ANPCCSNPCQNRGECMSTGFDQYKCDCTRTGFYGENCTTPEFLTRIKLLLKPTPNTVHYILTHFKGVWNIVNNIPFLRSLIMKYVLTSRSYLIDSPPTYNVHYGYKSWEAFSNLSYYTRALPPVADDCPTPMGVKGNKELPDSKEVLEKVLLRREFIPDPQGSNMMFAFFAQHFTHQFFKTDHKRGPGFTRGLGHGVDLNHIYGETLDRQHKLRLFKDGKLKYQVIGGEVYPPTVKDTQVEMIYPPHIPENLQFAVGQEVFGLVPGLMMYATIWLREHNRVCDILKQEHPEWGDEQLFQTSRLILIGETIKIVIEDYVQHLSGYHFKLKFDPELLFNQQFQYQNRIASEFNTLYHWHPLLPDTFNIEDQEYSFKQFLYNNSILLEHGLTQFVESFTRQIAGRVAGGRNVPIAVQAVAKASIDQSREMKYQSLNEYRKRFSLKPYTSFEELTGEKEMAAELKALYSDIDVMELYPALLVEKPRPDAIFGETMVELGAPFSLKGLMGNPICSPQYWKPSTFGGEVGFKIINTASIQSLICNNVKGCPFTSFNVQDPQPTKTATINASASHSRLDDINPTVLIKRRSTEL
How it was run: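 PGE2 output, quantified by radio- or enzyme-immunoassay, was read after 10 min exposure of cells to compound with 10 μM arachidonic acid. Cells were mouse peritoneal macrophages, COX-1 knocked out with 500 μM aspirin and COX-2 induced by 10 μg/ml LPS over 16 h. IC50 derived from 4–5 concentrations.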

Row | Molecule | % Inhibition (CFE) [1] | IC50, μg/ml COX-1 (COX-1) | melting point | IC50, μg/ml COX-2 (COX-2) | IC50 (COX-1; read-out: IC50, μg/ml COX-1 (converted)) | IC50 (COX-2; read-out: IC50, μg/ml COX-2 (converted))
1 | CC1(C)OC(c2ccc(S(N)(=O)=O)cc2)=C(c2cccc(C(F)(F)F)c2)C1=O [Example 23, 5-{4-(Aminosulfonyl)phenyl}-2,2-dimethyl-4-{3-(trifluoromethyl)phenyl}-3(2H)-furanone] | 33% | – | – | – | – | –
2 | C[S+]([O-])c1ccc(C2=C(c3cc(F)cc(F)c3)C(=O)C(C)(C)O2)cc1 (centres unmarked) [Example 177, 4-(3,5-Difluorophenyl)-2,2-dimethyl-5-{4-(methylsulfinyl)phenyl}-3(2H)-furanone] | 37% | 30 µg/mL (≈ 82.8 µM) | 133 to 134 °C | 5 µg/mL (≈ 13.8 µM) | – | –
3 | CC1(C)OC(c2ccc(S(N)(=O)=O)c(Cl)c2)=C(c2cccc(F)c2)C1=O [Example 369] | 28% | 50 µg/mL (≈ 126 µM) | 149 to 150 °C | 0.02 µg/mL (≈ 0.0505 µM) | – | –
4 | CC1(C)OC(c2ccc(S(C)(=O)=O)c(F)c2)=C(c2ccc(F)cc2)C1=O [Example 276] | 26% | 10 µg/mL (≈ 26.4 µM) | 160 to 161 °C | 0.05 µg/mL (≈ 0.132 µM) | – | –
5 | CC1(C)OC(c2ccc(S(N)(=O)=O)c(F)c2)=C(c2ccc(F)c(F)c2)C1=O [Example 311] | 30% | 3 µg/mL (≈ 7.55 µM) | 199 to 200 °C | 0.03 µg/mL (≈ 0.0755 µM) | – | –
6 | CC1(C)OC(c2ccc(S(C)(=O)=O)c(Cl)c2)=C(c2cccc(F)c2)C1=O [Example 359] | 28% | 200 µg/mL (≈ 507 µM) | 163 to 164 °C | 0.02 µg/mL (≈ 0.0507 µM) | – | –
7 | C[S+]([O-])c1ccc(C2=C(c3cccc(F)c3)C(=O)C(C)(C)O2)cc1 (centres unmarked) [Example 176, 2,2-dimethyl-4-(3-fluorophenyl)-5-{4-(methylsulfinyl)phenyl}-3(2H)-furanone] | 23% | – | 143 to 144 °C | 1 µg/mL (≈ 2.9 µM) | – | –
8 | CC(C)c1ccc(C2=C(c3ccc(S(C)(=O)=O)cc3)OC(C)(C)C2=O)cc1 [Example 84] | 25% | 3 µg/mL (≈ 7.8 µM) | 121 to 123 °C | 0.03 µg/mL (≈ 0.078 µM) | – | –
9 | CC1(C)OC(c2ccc(S(N)(=O)=O)cc2F)=C(c2cc(F)cc(F)c2)C1=O [Example 335] | 32% | 3 µg/mL (≈ 7.55 µM) | 185 to 187 °C | 0.003 µg/mL (≈ 0.00755 µM) | – | –
10 | 5-{(aminosulfonyl)-3-fluorophenyl}-4-(3,5-difluorophenyl)-2,2-dimethyl-3(2H)-furanone [Example 312] | 31% | 100 µg/mL | – | 0.02 µg/mL | – | –
11 | CC1(C)OC(c2ccc(S(N)(=O)=O)cc2)=C(c2ccccc2F)C1=O [Example 155] | 35% | 1.8 µg/mL (≈ 4.98 µM) | 188 to 189 °C | 0.016 µg/mL (≈ 0.0443 µM) | – | –
12 | Cn1cc(C2=C(c3ccc(S(C)(=O)=O)cc3)OC(C)(C)C2=O)cn1 [Example 20, 2,2-Dimethyl-4-{4-(1-N-methylpyrazolyl)}-5-{4-(methylsulfonyl)phenyl)-3(2H)-furanone] | 36% | – | 114 to 115 °C | – | – | –
13 | Cn1cc(C2=C(c3ccc(S(N)(=O)=O)cc3)OC(C)(C)C2=O)cn1 [Example 164] | 29% | 100 µg/mL (≈ 288 µM) | – | 0.03 µg/mL (≈ 0.0864 µM) | – | –
14 | CCC1(C)OC(c2ccc(S(C)(=O)=O)cc2)=C(c2ccccc2)C1=O (centres unmarked) [Example 31, 2-Ethyl-2-methyl-5-{4-(methylsulfonyl)phenyl}-4-phenyl-3(2H)-furanone] | – | 20 µg/mL (≈ 56.1 µM) | 115 to 117 °C | 0.2 µg/mL (≈ 0.561 µM) | – | –
15 | CC1(C)OC(c2ccc(S(C)(=O)=O)cc2)=C(c2ccc(C=O)s2)C1=O [Example 121] | – | 30 µg/mL (≈ 79.7 µM) | 168 to 170 °C | 0.2 µg/mL (≈ 0.531 µM) | – | –
16 | CC1(C)OC(c2ccc(S(C)(=O)=O)c(F)c2)=C(c2cc(F)ccc2F)C1=O [Example 282] | – | 30 µg/mL (≈ 75.7 µM) | 140 to 141 °C | 0.03 µg/mL (≈ 0.0757 µM) | – | –
17 | Cc1ccc(C2=C(c3ccc(S(C)(=O)=O)cc3)OC(C)(C)C2=O)s1 [Example 122] | – | 3 µg/mL (≈ 8.28 µM) | 141 to 142 °C | 0.03 µg/mL (≈ 0.0828 µM) | – | –
18 | CC1(C)OC(c2ccc(S(C)(=O)=O)c(Cl)c2)=C(c2cc(F)cc(F)c2)C1=O [Example 362] | – | 300 µg/mL (≈ 727 µM) | 200 to 201 °C | 0.05 µg/mL (≈ 0.121 µM) | – | –
19 | CCC1(C)OC(c2ccc(S(C)(=O)=O)cc2)=C(c2cccc(C)c2)C1=O (centres unmarked) [Example 193] | – | – | 48 to 49 °C | – | 8.1 µM | 0.081 µM
20 | CSc1ccc(C2=C(c3ccccc3)C(=O)C(C)(C)O2)cc1 [Example 167] | – | 50 µg/mL (≈ 161 µM) | 109 to 110 °C | 3 µg/mL (≈ 9.66 µM) | – | –
21 | CC1(C)OC(c2ccc(S(C)(=O)=O)cc2)=C(c2ccc(C(C)(C)C)cc2)C1=O [Example 76] | – | 50 µg/mL (≈ 125 µM) | 142 to 143 °C | 0.5 µg/mL (≈ 1.25 µM) | – | –
22 | CC1(C)OC(c2ccc(S(C)(=O)=O)c(F)c2)=C(c2cccc(F)c2)C1=O [Example 275] | – | 200 µg/mL (≈ 529 µM) | 182 to 183 °C | 0.03 µg/mL (≈ 0.0793 µM) | – | –
23 | CC1(C)OC(c2ccc(S(C)(=O)=O)cc2)=C(c2ccc(O)cc2)C1=O [Example 104, 2,2-Dimethyl-4-(4-hydroxyphenyl)-5-{4-(methylsulfonyl)phenyl}-3(2H)-furanone] | – | 100 µg/mL (≈ 279 µM) | 150 to 152 °C | 0.3 µg/mL (≈ 0.837 µM) | – | –
24 | CCCCc1ccc(C2=C(c3ccc(S(C)(=O)=O)cc3)OC(C)(C)C2=O)cc1 [Example 97] | – | 5 µg/mL (≈ 12.5 µM) | 84 to 85 °C | 0.002 µg/mL (≈ 0.00502 µM) | – | –
